# Data from PubChem BioAssay AID1963846 (Molecular Pharmacology Branch, DTP, NCI, 2024).
# pIC50: −log10 of the molar value. “And” between values parts separate entries of the source, which are not always exact repeats. Equal values may be shown once.
# Tested on: 454973-116-R2-J3-PDC complex spheroid viability
# Experiment: Anticancer human tumor 454973-116-R2-J3-PDC patient-derived pancreatic carcinoma cell line growth inhibition [POLQ]
# Conditions: for viability, T/C: stronger effect = lower value
# Protocol: Multicellular complex tumor spheroid response to Polymerase (POL) inhibitors (novobiocin, ART-558, RP6685) in combination with a variety of drugs and investigational agents in selected tumor cell lines
# The POL inhibitors (novobiocin, ART-558, and RP6685) were evaluated both individually and in combination with standard of care and investigational anticancer small molecules within a complex spheroid model of solid tumors. . Complex spheroids include a stromal component modeled by human endothelial cells (HUVEC) and fibroblasts modeled by human mesenchymal stem cells (MSCs). The concentration ranges selected for each drug and investigational agent were based upon clinically achievable concentrations if the clinical Cmax of the agent was known.
# Compounds. The drugs and investigational agents: novobiocin (NSC847541), ART-558 (NSC835418), RP-6685 (NSC848927), peposertib (NSC802822), ceralasertib (NSC780249), elimusertib (NSC800525), camonsertib (NSC841442), AZD-1390 (NSC803789), olaparib (NSC753686), talazoparib (NSC767125), rucaparib (NSC756644), sotorasib (NSC818433), MRTX-1133 (NSC836407), SN-38 (NSC673596), topotecan (NSC609699), epotoside (NSC141540), doxorubicin (NSC123127), gemcitabine (NSC613327), 5-fluorouracil (NSC19893), paclitaxel (NSC125973), vemurafenib (NSC761431), MSA-2 (NSC828583), SN-011 (NSC837082), adavosertib (NSC754352), prexasertib (NSC758257), carboplatin (NSC241240) and oxaliplatin (NSC266046), were obtained from the National Cancer Institute (NCI) Developmental Therapeutics Program Chemical Repository (21). The FDA-approved anticancer drug set is available from the Developmental Therapeutics Program at https://dtp.cancer.gov/organization/dscb/obtaining/. […] The stock solutions were prepared in dimethyl sulfoxide (DMSO, Sigma-Aldrich, St. Louis, MO, cat. D2650), except for the platinum compounds which were prepared in saline (Quality Biological, Gaithersburg, MD, cat. 114-055-101), at 800-fold the tested concentration and stored at -70 degrees C prior to their use. All drugs and investigational agents were tested over a range starting from a high concentration at or near the clinical Cmax and decreasing in half-log increments. If the clinical Cmax for an agent had not been determined, the highest concentration tested was 10 microM, except for SN-38, which was tested at a high concentration of 1 microM.
# Cell Culture. All cells were maintained in an incubator at 37 degrees C and 5% CO2 with 95% humidity. The PDC lines were cultured according to standard operating procedures established by the NCI PDMR (https://pdmr.cancer.gov). Table 3 of the manuscript, lists the cell lines along with the number of the three cell types plated to form the mct-spheroids and media for tumor cell growth. After thawing, all PDC lines, except 997537-175-T-J1-PDC and 415267-285-R-J2-PDC, were cultured in Matrigel-coated flasks prepared with a working solution of 1X Ham's F-12 nutrient mix, without supplementation (Thermo Fisher Scientific, cat. 11765054), 100 U/mL penicillin-streptomycin (Thermo Fisher Scientific, cat. 15140122), and 2.5% Matrigel (Corning Inc., Corning, NY, cat. 354248) for the first three passages. The two PDC lines 997537-175-T-J1-PDC and 415267-285-R-J2-PDC were cultured on uncoated flasks. The 857933-349-R-J2-PDC line was cultured in 6C/Colon 1B media containing advanced DMEM/F-12 (Thermo Fisher Scientific, cat. 12634028), 10 mM HEPES (Thermo Fisher Scientific, cat. 15630080), 1X GlutaMAX supplement (Thermo Fisher Scientific, cat. 35050061), 0.1 mg/mL primocin (InvivoGen, San Diego, CA, cat. ant-pm-2), 10% defined fetal bovine serum, heat inactivated (HyClone Laboratories Inc., Logan, UT, cat. SH30070.03HI), 50% L-WRN conditioned media (ATCC, cat. CRL-3276), 1.25 mM N-Acetyl-L-cysteine (Sigma-Aldrich, cat. A9165), 10 mM nicotinamide (Sigma-Aldrich, cat. N0636), 1X B-27 supplement (Thermo Fisher Scientific, cat. 17504044), 1X N-2 supplement (Thermo Fisher Scientific, cat. […]
# [1] = curve of first compound, second compound 0.0316 µM
# [2] = curve of first compound, second compound 0.1 µM
# [3] = curve of first compound, second compound 0.316 µM
# [4] = curve of first compound, second compound 1 µM
# [5] = curve of first compound, second compound 3.16 µM
# [6] = curve of first compound, second compound 10 µM
# [7] = second compound 0.0316 µM, first compound 0.0316 µM
# [8] = second compound 0.0316 µM, first compound 0.1 µM
# [9] = second compound 0.0316 µM, first compound 0.316 µM
# [10] = second compound 0.0316 µM, first compound 1 µM
# [11] = second compound 0.0316 µM, first compound 3.16 µM
# [12] = second compound 0.0316 µM, first compound 10 µM
# [13] = second compound 0.1 µM, first compound 0.0316 µM
# [14] = second compound 0.1 µM, first compound 0.1 µM
# [15] = second compound 0.1 µM, first compound 0.316 µM
# [16] = second compound 0.1 µM, first compound 1 µM
# [17] = second compound 0.1 µM, first compound 3.16 µM
# [18] = second compound 0.1 µM, first compound 10 µM
# [19] = second compound 0.316 µM, first compound 0.0316 µM
# [20] = second compound 0.316 µM, first compound 0.1 µM
# [21] = second compound 0.316 µM, first compound 0.316 µM
# [22] = second compound 0.316 µM, first compound 1 µM
# [23] = second compound 0.316 µM, first compound 3.16 µM
# [24] = second compound 0.316 µM, first compound 10 µM
# [25] = second compound 1 µM, first compound 0.0316 µM
# [26] = second compound 1 µM, first compound 0.1 µM
# [27] = second compound 1 µM, first compound 0.316 µM
# [28] = second compound 1 µM, first compound 1 µM
# [29] = second compound 1 µM, first compound 3.16 µM
# [30] = second compound 1 µM, first compound 10 µM
# [31] = second compound 3.16 µM, first compound 0.0316 µM
# [32] = second compound 3.16 µM, first compound 0.1 µM
# [33] = second compound 3.16 µM, first compound 0.316 µM
# [34] = second compound 3.16 µM, first compound 1 µM
# [35] = second compound 3.16 µM, first compound 3.16 µM
# [36] = second compound 3.16 µM, first compound 10 µM
# [37] = second compound 10 µM, first compound 0.0316 µM
# [38] = second compound 10 µM, first compound 0.1 µM
# [39] = second compound 10 µM, first compound 0.316 µM
# [40] = second compound 10 µM, first compound 1 µM
# [41] = second compound 10 µM, first compound 3.16 µM
# [42] = second compound 10 µM, first compound 10 µM
# 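Note: spheroids exposed to drugs for seven days before measurement.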
# 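Throughout, for viability, T/C: percent viability relative to DMSO vehicle control wells taken as 100%.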
smiles,measurement,setting,value
O=c1[nH]cc(F)c(=O)[nH]1 + Cc1cccc(N(C)C(=O)C2C(O)CCN2c2nc(C)cc(C(F)(F)F)c2C#N)c1,pIC50,[1],5.53
same,pIC50,[2],5.57
same,pIC50,[3],5.59
same,pIC50,[4],5.59
same,pIC50,[5],5.60
same,pIC50,[6],5.60
same,"viability, T/C",[7],99.3%
same,"viability, T/C",[8],104%
same,"viability, T/C",[9],98.1%
same,"viability, T/C",[10],104%
same,"viability, T/C",[11],46.3%
same,"viability, T/C",[12],30.7%
same,"viability, T/C",[13],109%
same,"viability, T/C",[14],108%
same,"viability, T/C",[15],111%
same,"viability, T/C",[16],102%
same,"viability, T/C",[17],41.1%
same,"viability, T/C",[18],33.1%
same,"viability, T/C",[19],107%
same,"viability, T/C",[20],115%
same,"viability, T/C",[21],123%
same,"viability, T/C",[22],96.9%
same,"viability, T/C",[23],40.1%
same,"viability, T/C",[24],37%
same,"viability, T/C",[25],119%
same,"viability, T/C",[26],112%
same,"viability, T/C",[27],112%
same,"viability, T/C",[28],95%
same,"viability, T/C",[29],40%
same,"viability, T/C",[30],31.6%
same,"viability, T/C",[31],116%
same,"viability, T/C",[32],118%
same,"viability, T/C",[33],108%
same,"viability, T/C",[34],93.4%
same,"viability, T/C",[35],38.9%
same,"viability, T/C",[36],32%
same,"viability, T/C",[37],116%
same,"viability, T/C",[38],108%
same,"viability, T/C",[39],104%
same,"viability, T/C",[40],92.2%
same,"viability, T/C",[41],39.6%
same,"viability, T/C",[42],30.9%
CCc1cc2c(N3CCc4c(cc(Cn5ccnc5)cc4-c4cn(C)nc4C(F)(F)F)C3=O)cc(C)nc2c(OC)n1,"viability, T/C",compound 0.0316 µM,110% and 99.6% and 98.9%
same,"viability, T/C",compound 0.1 µM,92% and 79.7% and 87.1%
same,"viability, T/C",compound 0.316 µM,88.2% and 81.7% and 79.3%
same,"viability, T/C",compound 1 µM,89.3% and 74.5% and 69.2%
same,"viability, T/C",compound 3.16 µM,87% and 76.7% and 72.6%
same,"viability, T/C",compound 10 µM,71.6% and 58.8% and 56.6%
same,pIC50,curve of compound,< 5.00
CCc1cc2c(N3CCc4c(cc(Cn5ccnc5)cc4-c4cn(C)nc4C(F)(F)F)C3=O)cc(C)nc2c(OC)n1 + Nc1ccc(C#CCN(C(=O)Cc2ncc(C(F)(F)F)cc2C(F)(F)F)c2ccc(F)cc2)nn1,pIC50,[1],< 5.00
same,pIC50,[2],< 5.00
same,pIC50,[3],< 5.00
same,pIC50,[4],< 5.00
same,pIC50,[5],< 5.00
same,pIC50,[6],< 5.00
same,"viability, T/C",[7],99.6%
same,"viability, T/C",[8],87.8%
same,"viability, T/C",[9],73.5%
same,"viability, T/C",[10],72.2%
same,"viability, T/C",[11],64.4%
same,"viability, T/C",[12],56.5%
same,"viability, T/C",[13],99.1%
same,"viability, T/C",[14],88.4%
same,"viability, T/C",[15],82.6%
same,"viability, T/C",[16],74.2%
same,"viability, T/C",[17],63.2%
same,"viability, T/C",[18],56.9%
same,"viability, T/C",[19],96.2%
same,"viability, T/C",[20],91.1%
same,"viability, T/C",[21],78.9%
same,"viability, T/C",[22],79.2%
same,"viability, T/C",[23],70.8%
same,"viability, T/C",[24],55%
same,"viability, T/C",[25],97.7%
same,"viability, T/C",[26],87.3%
same,"viability, T/C",[27],81.6%
same,"viability, T/C",[28],79%
same,"viability, T/C",[29],63%
same,"viability, T/C",[30],50.9%
same,"viability, T/C",[31],101%
same,"viability, T/C",[32],95.3%
same,"viability, T/C",[33],90.8%
same,"viability, T/C",[34],84.5%
same,"viability, T/C",[35],68.3%
same,"viability, T/C",[36],59.6%
same,"viability, T/C",[37],100%
same,"viability, T/C",[38],114%
same,"viability, T/C",[39],86.3%
same,"viability, T/C",[40],78.6%
same,"viability, T/C",[41],80.1%
same,"viability, T/C",[42],56.8%
